We go through ten molecules from patent publication US12404285B2, “KRAS G12D proteolysis targeting chimeras” (PAQ Therapeutics Inc., priority 2022, dated 2025).

The structures appear in SMILES notation.

T1 sequence (P01116 1-188 isoform P01116-2 G12D): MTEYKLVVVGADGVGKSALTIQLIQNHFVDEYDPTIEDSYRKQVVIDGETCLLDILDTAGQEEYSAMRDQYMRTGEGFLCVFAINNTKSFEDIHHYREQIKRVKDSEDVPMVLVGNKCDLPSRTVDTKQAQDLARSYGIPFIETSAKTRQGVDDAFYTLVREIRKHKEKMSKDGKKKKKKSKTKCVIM

The test addresses T1, KRAS (G12D)-HiBit in AsPc-1-KRAS (G12D)-HiBit-KI cell (Homo sapiens, UniProt P01116, G12D).
T1 construct: host or cells: AsPc-1-KRAS (G12D)-HiBit-KI cells (knock-in line)
The test can be described thus: G12D HiBit assay. It counts as cell-based. As to conditions: 24 hours compound treatment, absolute DC50, read-out: Average PHA DC50. In a few lines:
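Degradation of endogenous HiBiT-tagged KRAS G12D in AsPc-1 knock-in cells read after 24 h compound exposure (0.015-300 nM, 3-fold steps) by Nano-Glo HiBiT lytic luminescence. Signal normalised to DMSO-only cells; absolute DC50 derived by curve fitting.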
On the technique in general: The HiBiT peptide binds its large partner to form an active luciferase.
Consider `C#Cc1c(F)ccc2cccc(-c3ncc4c(N5CC6CCC(C5)N6)nc(OC[C@@]56CCCN5[C@H](COC(=O)N5CC(OCC7CCN(c8ccc9c(c8)n(C)c(=O)n9C8CCC(=O)NC8=O)CC7)C5)CC6)nc4c3F)c12` (stereo partly drawn) [Compound 101, [(3S,8S)-8-[[4-(3,8-Diazabicyclo[3.2.1]octan-3-yl)-7-(8-ethynyl-7-fluoro-1-naphthyl)-8-fluoro-pyrido[4,3-d]pyrimidin-2-yl]oxymethyl]-1,2,3,5,6,7-hexahydropyrrolizin-3-yl]methyl 3-[[1-[1-(2,6-dioxo-3-piperidyl)-3-methyl-2-oxo-benzimidazol-5-yl]-4-piperidyl]methoxy]azetidine-1-carboxylate], for which the DC50 was below 100 nM.
Turning to `C#Cc1c(F)ccc2cccc(-c3ncc4c(N5CC6CCC(C5)N6)nc(OC[C@@]56CCCN5[C@H](COC(=O)N5CCC(COC7CN(c8ccc9c(c8)n(C)c(=O)n9C8CCC(=O)NC8=O)C7)CC5)CC6)nc4c3F)c12` (stereo partly drawn) [Compound 102, [(3S,8S)-8-[[4-(3,8-Diazabicyclo[3.2.1]octan-3-yl)-7-(8-ethynyl-7-fluoro-1-naphthyl)-8-fluoro-pyrido[4,3-d]pyrimidin-2-yl]oxymethyl]-1,2,3,5,6,7-hexahydropyrrolizin-3-yl]methyl4-[[1-[1-(2,6-dioxo-3-piperidyl)-3-methyl-2-oxo-benzimidazol-5-yl]azetidin-3-yl]oxymethyl]piperidine-1-carboxylate], the DC50 was below 100 nM.
For the molecule `C#Cc1c(F)ccc2cccc(-c3ncc4c(N5CC6CCC(C5)N6)nc(OC[C@@]56CCCN5[C@H](COC(=O)N5CC7CCC(C5)C7CN5CCC(c7ccc8c(c7)n(C)c(=O)n8C7CCC(=O)NC7=O)CC5)CC6)nc4c3F)c12` (stereo partly drawn) [Compound 103, [(3S,8S)-8-[[4-(3,8-Diazabicyclo[3.2.1]octan-3-yl)-7-(8-ethynyl-7-fluoro-1-naphthyl)-8-fluoro-pyrido[4,3-d]pyrimidin-2-yl]oxymethyl]-1,2,3,5,6,7-hexahydropyrrolizin-3-yl]methyl8-[[4-[1-(2,6-dioxo-3-piperidyl)-3-methyl-2-oxo-benzimidazol-5-yl]-1-piperidyl]methyl]-3-azabicyclo[3.2.1]octane-3-carboxylate], the DC50 was below 100 nM.
With `C#Cc1c(F)ccc2cccc(-c3ncc4c(N5CC6CCC(C5)N6)nc(OC[C@@]56CCCN5[C@H](COC(=O)N5CC(COC7CCN(c8ccc9c(c8)n(C)c(=O)n9C8CCC(=O)NC8=O)CC7)C5)CC6)nc4c3F)c12` (stereo partly drawn) [Compound 104, [(3S,8S)-8-[[4-(3,8-Diazabicyclo[3.2.1]octan-3-yl)-7-(8-ethynyl-7-fluoro-1-naphthyl)-8-fluoro-pyrido[4,3-d]pyrimidin-2-yl]oxymethyl]-1,2,3,5,6,7-hexahydropyrrolizin-3-yl]methyl 3-[[1-[1-(2,6-dioxo-3-piperidyl)-3-methyl-2-oxo-benzimidazol-5-yl]-4-piperidyl]oxymethyl]azetidine-1-carboxylate], the DC50 is below 100 nM.
For `C#Cc1c(F)ccc2cccc(-c3ncc4c(N5CC6CCC(C5)N6)nc(OC[C@@]56CCCN5[C@H](COC(=O)N5CCC(CCOCC#Cc7ccc8c(c7)n(C)c(=O)n8C7CCC(=O)NC7=O)CC5)CC6)nc4c3F)c12` (stereo partly drawn) [Compound 105, [(3S,8S)-8-[[4-(3,8-diazabicyclo[3.2.1]octan-3-yl)-7-(8-ethynyl-7-fluoro-1-naphthyl)-8-fluoro-pyrido[4,3-d]pyrimidin-2-yl]oxymethyl]-1,2,3,5,6,7-hexahydropyrrolizin-3-yl]methyl 4-[2-[3-[1-(2,6-dioxo-3-piperidyl)-3-methyl-2-oxo-benzimidazol-5-yl]prop-2-ynoxy]ethyl]piperidine-1-carboxylate] the value was below 100 nM; for `C#Cc1c(F)ccc2cccc(-c3ncc4c(N5CC6CCC(C5)N6)nc(OC[C@@]56CCCN5[C@H](COC(=O)N5CCC(CN7CCN(c8ccc9c(c8)n(C)c(=O)n9C8CCC(=O)NC8=O)CC7)CC5)CC6)nc4c3F)c12` (stereo partly shown) [Compound 106], below 100 nM; for `C#Cc1c(F)ccc2cccc(-c3ncc4c(N5CC6CCC(C5)N6)nc(OC[C@@]56CCCN5[C@H](COC(=O)N5CCC(OCCC#Cc7cccc8c7n(C)c(=O)n8C7CCC(=O)NC7=O)CC5)CC6)nc4c3F)c12` (stereo partly drawn) [Compound 107, [(3S,8S)-8-[[4-(3,8-diazabicyclo[3.2.1]octan-3-yl)-7-(8-ethynyl-7-fluoro-1-naphthyl)-8-fluoro-pyrido[4,3-d]pyrimidin-2-yl]oxymethyl]-1,2,3,5,6,7-hexahydropyrrolizin-3-yl]methyl 4-[4-[1-(2,6-dioxo-3-piperidyl)-3-methyl-2-oxo-benzimidazol-4-yl]but-3-ynoxy]piperidine-1-carboxylate], below 100 nM.
Regarding `C#Cc1c(F)ccc2cccc(-c3ncc4c(N5CC6CCC(C5)N6)nc(OC[C@@]56CCCN5[C@H](COC(=O)N5CCC(CN(C)C7CCN(c8cccc9c8n(C)c(=O)n9C8CCC(=O)NC8=O)CC7)CC5)CC6)nc4c3F)c12` (stereo partly drawn) [Compound 108, [(3S,8S)-8-[[4-(3,8-Diazabicyclo[3.2.1]octan-3-yl)-7-(8-ethynyl-7-fluoro-1-naphthyl)-8-fluoro-pyrido[4,3-d]pyrimidin-2-yl]oxymethyl]-1,2,3,5,6,7-hexahydropyrrolizin-3-yl]methyl4-[[[1-[1-(2,6-dioxo-3-piperidyl)-3-methyl-2-oxo-benzimidazol-4-yl]-4-piperidyl]-methyl-amino]methyl]piperidine-1-carboxylate], the DC50 was below 100 nM.
Under `C#Cc1c(F)ccc2cccc(-c3ncc4c(N5CC6CCC(C5)N6)nc(OC[C@@]56CCCN5[C@H](COC(=O)NCCCN(C)C5CCN(c7cccc8c7n(C)c(=O)n8C7CCC(=O)NC7=O)CC5)CC6)nc4c3F)c12` (stereo partly drawn) [Compound 109, [(3S,8S)-8-[[4-(3,8-Diazabicyclo[3.2.1]octan-3-yl)-7-(8-ethynyl-7-fluoro-1-naphthyl)-8-fluoro-pyrido[4,3-d]pyrimidin-2-yl]oxymethyl]-1,2,3,5,6,7-hexahydropyrrolizin-3-yl]methylN-[3-[[1-[1-(2,6-dioxo-3-piperidyl)-3-methyl-2-oxo-benzimidazol-4-yl]-4-piperidyl]-methyl-amino]propyl]carbamate] stands at least 300 nM; under `C#Cc1c(F)ccc2cccc(-c3ncc4c(N5CC6CCC(C5)N6)nc(OC[C@@]56CCCN5[C@H](COC(=O)NCCCC(=O)N5CCN(c7cccc8c7n(C)c(=O)n8C7CCC(=O)NC7=O)CC5)CC6)nc4c3F)c12` (stereo partly drawn) [Compound 110, ((3S,7aS)-7a-(((4-((1R,5S)-3,8-Diazabicyclo[3.2.1]octan-3-yl)-7-(8-ethynyl-7-fluoronaphthalen-1-yl)-8-fluoropyrido[4,3-d]pyrimidin-2-yl)oxy)methyl)hexahydro-1H-pyrrolizin-3-yl)methyl(4-(4-(1-(2,6-dioxopiperidin-3-yl)-3-methyl-2-oxo-2,3-dihydro-1H-benzo[d]imidazol-4-yl)piperazin-1-yl)-4-oxobutyl)carbamate], at least 300 nM.
